In patent publication US10414740B2, “Glutaminase inhibitors and method of use” (Agios Pharmaceuticals, Inc., priority 2012, dated 2019) one finds IC50 data, which are given here for 37 compounds.

This test deals with T1, glutaminase (GAC) (Homo sapiens, UniProt O94925).
T1 sequence (O94925 55-598 isoform O94925-3 limits assumed): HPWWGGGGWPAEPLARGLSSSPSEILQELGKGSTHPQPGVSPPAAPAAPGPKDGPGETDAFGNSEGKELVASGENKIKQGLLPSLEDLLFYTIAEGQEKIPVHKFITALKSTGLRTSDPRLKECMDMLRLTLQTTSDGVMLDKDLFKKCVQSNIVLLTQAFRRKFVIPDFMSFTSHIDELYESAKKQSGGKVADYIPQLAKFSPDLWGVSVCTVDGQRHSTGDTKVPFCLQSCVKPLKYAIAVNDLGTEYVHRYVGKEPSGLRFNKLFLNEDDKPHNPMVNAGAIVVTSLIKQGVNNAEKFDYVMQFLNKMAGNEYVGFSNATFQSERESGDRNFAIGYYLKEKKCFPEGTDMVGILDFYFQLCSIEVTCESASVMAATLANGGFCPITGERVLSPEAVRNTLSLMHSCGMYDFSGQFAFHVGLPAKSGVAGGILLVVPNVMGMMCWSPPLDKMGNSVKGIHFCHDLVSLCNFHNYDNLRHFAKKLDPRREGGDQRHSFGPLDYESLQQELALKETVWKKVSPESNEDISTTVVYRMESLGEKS
The test is described as follows: glutaminase coupled endpoint assay (Example A). The following applies: inhibition of glutaminase; IC50 tested in an assay of Example A or Example B. The class given is biochemical. Here is the method: In this example, the enzymatic activity of glutaminase is measured through a coupled endpoint assay. […] The glutamate produced is converted to 2-OG by a kinetic excess of glutamate dehydrogenase. […] However, a kinetic excess of the third coupling enzyme, diaphorase, recycles NAD from NADH to keep the NAD concentration constant during the timecourse of the assay. Diaphorase, also supplied in kinetic excess, oxidizes NADH produced by GDH back to NAD with the concomitant reduction of rezasurin to the highly fluorescent resorufin. […] A reduction in the signal indicates inhibition of some component of the coupled enzyme system. Prospective hits are counterscreened against GDH/diaphorase alone to remove hits to the coupling enzyme system in a second assay.
2. […] Add 1 μl a compound in 100% DMSO 2. Add 40 μl of Enzyme Mix and incubate for 60 minute at room temperature 3. Add 10 μl of Substrate Mix to start reaction 4.
What is called IC50 is the concentration at which inhibition is half-maximal. High values mean a need for much substance, low ones inhibition by little substance. As for `COc1ccccc1OCC(=O)Nc1nnc(CCCCc2nnc(NC(=O)COc3ccccc3OC)s2)s1` [Compound 74], the IC50 was 100 to 500 nM. For `COc1ccc(CCCC(=O)Nc2nnc(CCCCc3nnc(NC(=O)CCCc4ccc(OC)cc4)s3)s2)cc1` [Compound 75, N,N′-(5,5′-(butane-1,4-diyl)bis(1,3,4-thiadiazole-5,2-diyl))bis(4-(4-methoxyphenyl)butanamide)] the value was 100 to 500 nM; for `CCOC(=O)CCCC(=O)Nc1nnc(CCCCc2nnc(NC(=O)CCCC(=O)OCC)s2)s1` [Compound 76, Diethyl 5,5′-(5,5′-(butane-1,4-diyl)bis(1,3,4-thiadiazole-5,2-diyl))bis(azanediyl)bis(5-oxopentanoate)], 100 to 500 nM; for `CNC(=O)c1nnc(CCSCCc2nnc(C(=O)NC)s2)s1` [Compound 77], 1000 to 10000 nM. The compound `O=C(Cc1ccc(Cl)nc1)Nc1nnc(CCCCc2nnc(NC(=O)Cc3ccc(Cl)nc3)s2)s1` [Compound 78, N,N′-(5,5′-(butane-1,4-diyl)bis(1,3,4-thiadiazole-5,2-diyl))bis(2-(6-chloropyridin-3-yl)acetamide)] came in with an IC50 of 500 to 1000 nM. With `CC(C)c1ccc(OCC(=O)Nc2nnc(CCCCc3nnc(NC(=O)COc4ccc(C(C)C)cc4)s3)s2)cc1` [Compound 79] the figure was 1000 to 10000 nM; with `O=C(CCCC1CCCCC1)Nc1nnc(CCCCc2nnc(NC(=O)CCCC3CCCCC3)s2)s1` [Compound 80, N,N′-(5,5′-(butane-1,4-diyl)bis(1,3,4-thiadiazole-5,2-diyl))bis(4-cyclohexylbutanamide)], 500 to 1000 nM. For `O=C(C/C=C/c1ccccc1)Nc1nnc(CCCCc2nnc(NC(=O)C/C=C/c3ccccc3)s2)s1` [Compound 81, (3E,3′E)-N,N′-(5,5′-(butane-1,4-diyl)bis(1,3,4-thiadiazole-5,2-diyl))bis(4-phenylbut-3-enamide)] the value was 100 to 500 nM; for `O=C(CCCc1ccccc1)Nc1nnc(CCCCc2nnc(NC(=O)CCCc3ccccc3)s2)s1` [Compound 82, N,N′-(5,5′-(butane-1,4-diyl)bis(1,3,4-thiadiazole-5,2-diyl))bis(4-phenylbutanamide)], 100 to 500 nM; for `O=C(Cc1ccc(F)c(F)c1)Nc1nnc(CCCCc2nnc(NC(=O)Cc3ccc(F)c(F)c3)s2)s1` [Compound 83, N,N′-(5,5′-(butane-1,4-diyl)bis(1,3,4-thiadiazole-5,2-diyl))bis(2-(3,4-difluorophenyl)acetamide)], under 100 nM. For `O=C(Nc1nnc(CCCCc2nnc(NC(=O)C3(c4ccccc4)CC3)s2)s1)C1(c2ccccc2)CC1` [Compound 84] the value was 1000 to 10000 nM; for `O=C(Nc1nnc(CCCCc2nnc(NC(=O)c3cccc4ccccc34)s2)s1)c1cccc2ccccc12` [Compound 85, N,N′-(5,5′-(butane-1,4-diyl)bis(1,3,4-thiadiazole-5,2-diyl))di-1-naphthamide], 100 to 500 nM. `O=C(Cc1c[nH]c2ccccc12)Nc1nnc(CCCCc2nnc(NC(=O)Cc3c[nH]c4ccccc34)s2)s1` [Compound 87, N,N′-(5,5′-(butane-1,4-diyl)bis(1,3,4-thiadiazole-5,2-diyl))bis(2-(1H-indol-3-yl)acetamide)] yielded an IC50 of under 100 nM. `CC(C)(C(=O)Nc1nnc(CCCCc2nnc(NC(=O)C(C)(C)c3ccccc3)s2)s1)c1ccccc1` [Compound 88, N,N′-(5,5′-(butane-1,4-diyl)bis(1,3,4-thiadiazole-5,2-diyl))bis(2-methyl-2-phenylpropanamide)] showed an IC50 of 500 to 1000 nM. With `O=C(CC1NC(=O)NC1=O)Nc1nnc(CCCCc2nnc(NC(=O)CC3NC(=O)NC3=O)s2)s1` (stereo not shown) [Compound 89, N,N′-(5,5′-(butane-1,4-diyl)bis(1,3,4-thiadiazole-5,2-diyl))bis(2-(2,5-dioxoimidazolidin-4-yl)acetamide)] the figure was 100 to 500 nM; with `O=C(Nc1nnc(CCCCc2nnc(NC(=O)C3CCCCC3)s2)s1)C1CCCCC1` [Compound 90, N,N′-(5,5′-(butane-1,4-diyl)bis(1,3,4-thiadiazole-5,2-diyl))dicyclohexanecarboxamide], 100 to 500 nM.

The compound `O=C(CCc1ccccc1Cl)Nc1nnc(CCCCc2nnc(NC(=O)CCc3ccccc3Cl)s2)s1` [Compound 91, N,N′-(5,5′-(butane-1,4-diyl)bis(1,3,4-thiadiazole-5,2-diyl))bis(3-(2-chlorophenyl)propanamide)] came in with an IC50 of 100 to 500 nM. For `O=C(Cc1cccc(C(F)(F)F)c1F)Nc1nnc(CCCCc2nnc(NC(=O)Cc3cccc(C(F)(F)F)c3F)s2)s1` [Compound 92] the value was 1000 to 10000 nM; for `O=C(CC1OC(=O)c2ccccc21)Nc1nnc(CCCCc2nnc(NC(=O)CC3OC(=O)c4ccccc43)s2)s1` (stereo not shown) [Compound 93, N,N′-(5,5′-(butane-1,4-diyl)bis(1,3,4-thiadiazole-5,2-diyl))bis(2-(3-oxo-1,3-dihydroisobenzofuran-1-yl)acetamide)], 100 to 500 nM; for `CC(=O)Nc1nnc(CCCCc2nnc(NC(C)=O)s2)s1` [Compound 94, N,N′-(5,5′-(butane-1,4-diyl)bis(1,3,4-thiadiazole-5,2-diyl))diacetamide], 500 to 1000 nM. As to `O=C(Nc1nnc(CCCCc2nnc(NC(=O)C3CCCC3)s2)s1)C1CCCC1` [Compound 95, N,N′-(5,5′-(butane-1,4-diyl)bis(1,3,4-thiadiazole-5,2-diyl))dicyclopentanecarboxamide], the IC50 was 500 to 1000 nM.

As to `CC(C)(C)CC(=O)Nc1nnc(CCCCc2nnc(NC(=O)CC(C)(C)C)s2)s1` [Compound 96], the IC50 lay within 1000 to 10000 nM. With `CN(C(=O)Cc1ccccc1)c1nnc(CCCCc2nnc(N(C)C(=O)Cc3ccccc3)s2)s1` [Compound 97] the figure was 1000 to 10000 nM; with `CC(=O)Nc1nnc(CCCCc2nnc(NC(=O)Cc3ccccc3)s2)s1` [Compound 98], 100 to 500 nM.

In the case of `O=C(Cc1ccccc1)Nc1cc(CCCCc2cc(NC(=O)Cc3ccccc3)on2)no1` [Compound 99], the IC50 was 1000 to 10000 nM. Take `O=C(NCc1ccccc1)c1nnc(CCCCc2nnc(C(=O)NCc3ccccc3)s2)s1` [Compound 100]: the IC50 fell in the range of 100 to 500 nM. For `COc1cc(CCC(=O)Nc2nnc(CCCCc3nnc(NC(=O)CCc4cc(OC)c(OC)c(OC)c4)s3)s2)cc(OC)c1OC` [Compound 101, N,N′-(5,5′-(butane-1,4-diyl)bis(1,3,4-thiadiazole-5,2-diyl))bis(3-(3,4,5-trimethoxyphenyl)propanamide)] the value was 500 to 1000 nM; for `O=C(Nc1nnc(CCCCc2nnc(NC(=O)C3CCC3)s2)s1)C1CCC1` [Compound 102, N,N′-(5,5′-(butane-1,4-diyl)bis(1,3,4-thiadiazole-5,2-diyl))dicyclobutanecarboxamide], 500 to 1000 nM; for `O=C(CNC(=O)c1ccccc1)Nc1nnc(CCCCc2nnc(NC(=O)CNC(=O)c3ccccc3)s2)s1` [Compound 103, N,N′-(2,2′-(5,5′-(butane-1,4-diyl)bis(1,3,4-thiadiazole-5,2-diyl))bis(azanediyl)bis(2-oxoethane-2,1-diyl))dibenzamide], 500 to 1000 nM.

With `Cc1cccc(OCC(=O)Nc2nnc(CCCCc3nnc(NC(=O)COc4cccc(C)c4)s3)s2)c1` [Compound 104], the IC50 was 1000 to 10000 nM. With `O=C(Nc1nnc(CCCCc2nnc(NC(=O)C3CC3)s2)s1)C1CC1` [Compound 105] the figure was 1000 to 10000 nM; with `COc1cccc(CCC(=O)Nc2nnc(CCCCc3nnc(NC(=O)CCc4cccc(OC)c4OC)s3)s2)c1OC` [Compound 106, N,N′-(5,5′-(butane-1,4-diyl)bis(1,3,4-thiadiazole-5,2-diyl))bis(3-(2,3-dimethoxyphenyl)propanamide)], 100 to 500 nM; with `CN(C)c1ccc(CC(=O)Nc2nnc(CCCCc3nnc(NC(=O)Cc4ccc(N(C)C)cc4)s3)s2)cc1` [Compound 107, N,N′-(5,5′-(butane-1,4-diyl)bis(1,3,4-thiadiazole-5,2-diyl))bis(2-(4-(dimethylamino)phenyl)acetamide)], 100 to 500 nM. `O=C(Cc1ccccn1)Nc1nnc(CCC(O)CCc2nnc(NC(=O)Cc3ccccn3)s2)s1` [Compound 108] gave an IC50 of 1000 to 10000 nM. For `CC(C)(Oc1ccc(Cl)cc1)C(=O)Nc1nnc(CCCCc2nnc(NC(=O)C(C)(C)Oc3ccc(Cl)cc3)s2)s1` [Compound 109] the value was 1000 to 10000 nM. With `CC(CC(=O)Nc1nnc(CCCCc2nnc(NC(=O)CC(C)c3ccccc3)s2)s1)c1ccccc1` (stereo not shown) [Compound 110] the figure was 1000 to 10000 nM. For `O=C(CCOc1ccccc1)Nc1nnc(CCCCc2nnc(NC(=O)CCOc3ccccc3)s2)s1` [Compound 111, N,N′-(5,5′-(butane-1,4-diyl)bis(1,3,4-thiadiazole-5,2-diyl))bis(3-phenoxypropanamide)] the value was 100 to 500 nM.
